{"source": "patent US20210340178A1", "about": "“NONAPEPTIDE PREVENTING INCREASED HYPERPERMEABILITY OF VASCULAR ENDOTHELIUM” (FEDERALNOYE GOSUDARSTVENNOE BUDGETNOE UCHREZHDENIE …, priority 2018, published 2021)", "key": {"[1]": {"assay": "Peptide half-lives in human plasma in vitro (1H-NMR spectroscopy)", "type": "in vitro ADME", "details": "for half-life: human, plasma", "experimental": "Whole blood (100 mL) was collected from healthy donors to 50-mL tubes containing 5 mL of a preservative (130 mM citrate in phosphate buffered saline (PBS), pH 7.4). The blood was incubated for 15-20 min at room temperature followed by centrifugation at 1500 g for 15 min at 18° C. The supernatants were transferred to clear tubes and centrifuged as above. Dry NaBr was added to the plasma (280 mg per 1 mL of plasma). After dissolution of NaBr, the plasma (approx. 30 mL) was transferred to centrifuge tubes (Type 45Ti rotor, Beckman, USA) and layered with 20 mL of a solution (specific mass of […]), which was prepared as follows—11.42 g of NaCl and 100 mg of ethylenediaminetetraacetic acid (EDTA) were dissolved in distilled water in a final volume of 1 L (pH 7.4) and 281.44 g of NaBr was added. The plasma was centrifuged at 40,000 rpm for 48 hrs. The upper dark-yellow fraction containing lipoproteins and the colorless buffer fraction were discarded leaving approx. 1-cm high buffer above the apparent plasma border. Portions of plasma obtained from one donor were pooled and dialyzed for 36 hrs against 4 L of PSB free of Ca^2+ and Mg^2+(MP Biomedicals, USA) in dialysis bags with 12-14 kDa pore sizes. The dialysis procedure was repeated twice with fresh buffer changed every 24 hrs. After the dialysis, the plasma was centrifuged at 25,000 rpm (Type 45Ti rotor, Beckman, USA) for 15 min at 4° C. The supernatant fraction was collected and lyophilized. The dry matter was dissolved in D2O in a final volume equal to the plasma volume before NaBr was added, lyophilized again, dissolved in the same volume of D2O, and stored in 1-mL aliquots at −20° C. before use.\n^1H-NMR spectroscopy was employed to analyze relative degradation of PIK7 (the claimed peptide) and MLC11-19 (the structural analogue) in human plasma. ^1H-NMR spectroscopy allows simultaneous direct monitoring the amounts of original full-length peptide and its fragments during the course of enzymatic hydrolysis (Isakova et al., 1986). Stability of a peptide, its degradation pathway(s) and a half-life estimate are available from a comparison of spectra obtained at different time points after the addition of a peptide to plasma. ^1H-NMR spectra were obtained using a WM-500 spectrometer (Bruker, Germany) at 37° C. Chemical shifts in ^1H-NMR spectra were measured relative to an internal standard (2,2-dimethyl-2-silapentane-5-sulfonate sodium salt). The signals were referenced by the double-resonance method. The resonances from peptide protons were identified by the differential spectroscopy method, i.e. the spectrum of blood plasma was subtracted from each spectrum obtained in the presence of peptide of interest. Peptide concentrations were 3 mg/ml.\nThese indicate the peptide N-terminus degradation. […] Therefore, the claimed peptide has an increased life-span in plasma that allows for long-lasting maintenance of its effective concentrations necessary to decrease the endothelial hyperpermeability under emergency conditions. Moreover, an increased life-time allows attaining the desired therapeutic effect with lower (as compared to homologues) peptide concentrations."}, "[2]": {"tested_on": "EA.hy926 endothelial cell monolayer", "assay": "Thrombin-mediated FITC-dextran permeability through endothelial cell monolayer", "type": "cell-based", "details": "peptide 100 μM, 60 min preincubation; thrombin 100 nM; 70 kDa FITC-dextran", "experimental": "FIG. 3. The thrombin-mediated FITC-dextran permeability through the EA.hy926 endothelial cell monolayer in the presence of myosin light chain kinase peptide inhibitors. Thrombin (100 nM) was added at 0 min, the cells were preincubated for 60 min with MLCK peptide inhibitors (100 μM). Data are presented as mean±SD, n=5. p<0.05 for all data points within the 20-180 min time course range as compared to the thrombin-stimulated control.\nEffects of the claimed peptide (PIK7), the prototype (PIK2), and the analogue (MLC11-19) on the endothelial permeability was assayed in a model of FITC-dextran diffusion through the endothelial monolayer as described in Example 3.\nCells were grown in 24-well plates (Greiner Bio-one, Austria) equipped with special inserts to form inner (upper) chambers with a porous bottom (the pore diameter of 0.4 μm, pore density of 10^8/cm^2) in DMEM until monolayer was formed (3-4 days). Successful monolayer was checked by measuring FITC-dextran diffusion for 1 hour through inserts with cell monolayers vs inserts without cells (‘blank’ inserts). Experiments were performed in triplicates when tight monolayers were formed. On the day of experiment, the cells were deprived for 1 h in DMEM supplemented with MLCK inhibitors or without inhibitors (control). After deprivation, FITC-dextran was added to the upper compartment to a final concentration of 0.05 mg/ml. In 30 and 60 min, a 10-μ1 aliquot was withdrawn from the lower compartment and mixed with 100 μl phosphate buffered saline pH 7.3 in a 96-well plate to estimate the endothelial monolayer baseline permeability. […] During the next 3 hrs, every 30 min, aliquots were taken from the lower compartment, and intensity of FITC fluorescence was measured using a Victor 3X plate reader (Perkin Elmer, USA) to plot the dynamics of the FITC fluorescence changes.\nAs shown, 100 nM thrombin induces the endothelial hyperpermeability response as reflected by an increase in 70 kDa FITC-dextran diffusion through the endothelial monolayer and an incremental increase in the fluorescence in the lower compartment of the diffusion chamber. […]"}, "[3]": {"assay": "Acute toxicity in mice, single injection", "type": "in vivo", "details": "mouse, in vivo; mice, Table 3; read-out: Toxicity LD50 in mice", "experimental": "(§1) The study was conducted in 82 BALB/c mice (both males and females, body weight 18-24 g) obtained from the animal facility of the Scientific Center for Biomedical Technologies of the Federal Medico-Biological Agency of the Russian Federation (SCBMT). The animals were certified and otherwise healthy. The animals were kept in T-3 cages (5-10 animals per cage) with artificial 12 hrs light-dark cycles and 16× per hour forced air ventilation, temperature of 20-22° C. and 50-65% humidity on wood chips sterilized by hot air. The animals had free access to drinking water and PK-120-1 mouse cubes (GOST P50258-92; Laboratorsnab LLC, Russia).\n(§2) PIK2 and PIK7 peptides were dissolved in water and administered to mice as a single intraperitoneal injection. The animals were followed for 14 days after peptide injections. An increasing dosage scheme was applied where each tested dose surpassed the previous dose by 50%. The lowest dose of the active substance was determined that caused animal death."}, "[4]": {"tested_on": "BALB/c mice", "assay": "Acute toxicity in mice, single injection", "type": "in vivo", "experimental": "as §1, §2"}, "[5]": {"details": "rabbit, in vivo", "method": "(§3) PIK2 dose of 5 mg/kg was calculated individually for each rabbit and administered into marginal ear vein in a final volume of 1.7-1.9 mL in sterile physiological saline. Stock concentration of the tested substance was 10 mg/mL.\n(§4) During the 24-hrs testing period, the overall health status and behavior were monitored (appetite, motion activity, hair coat condition).\n(§5) Before injection of test substances (baseline) and 4 hrs and 24 hrs after the injection, the following parameters were tested in whole venous blood samples (3.0-3.5 mL) collected from a marginal ear vein red blood cell (RBC) count, hematocrit, hemoglobin level, mean RBC volume, mean corpuscular hemoglobin, total leukocyte, lymphocyte, and granulocyte counts and their percentages, platelet count, and mean platelet volume. In parallel, the following biochemical parameters were measured in serum total protein, bilirubin, urea, creatinine, glucose, total cholesterol, triglycerides, and activities of alkaline phosphatase, lactate dehydrogenase, aspartate aminotransferase, and alanine aminotransferase. Blood cell count was performed using an Abacus junior vet (Austria) hematological cell counter; biochemical studies were performed using a Targa-2000 (Italy) instrument."}, "[6]": {"tested_on": "Chinchilla rabbits", "assay": "Tolerance of a single intravenous injection in Chinchilla rabbits", "details": "i.v. 10 mg/kg", "method": "as §3, §4, §5"}}, "note": "“Also recorded” adds a separate entry of the source. Read-outs that look alike come from different tables or passages of the source. Non-standard residues stand in square brackets, D forms with d. Residues, ends and D or L forms follow the SMILES beside them."}
{"smiles": "C[C@H](NC(=O)[C@H](C)NC(=O)[C@H](CCCNC(=N)N)NC(=O)[C@@H](CCCCN)NC(=O)[C@@H](N)CCCCN)C(=O)N[C@@H](CCCNC(=N)N)C(=O)N[C@@H](C)C(=O)N[C@H](C(=O)N[C@@H](CO)C(N)=O)[C@@H](C)O", "note": "[PIK7, H-Lys-D-Lys-Arg-Ala-Ala-Arg-Ala-Thr-Ser-NH2] (H-K[dK]RAARATS-NH2)", "values": [{"measurement": "T1/2, half-life in human plasma in vitro", "setting": "[1]; 1H-NMR, 37° C., peptide 3 mg/ml", "result": "≥320", "unit": "min"}, {"measurement": "resistance to proteolysis as compared to the structural analogue (MLC11-19)", "setting": "[1]; human plasma in vitro", "result": "by one order of magnitude"}, {"measurement": "half-life", "setting": "[1]; 1H-NMR, 37° C., peptide 3 mg/ml (FIG. 2), read-out: half-life in human plasma", "result": "≥ 420", "unit": "min"}, {"measurement": "half-life", "setting": "[1]; 1H-NMR, 37° C., peptide 3 mg/ml, read-out: T1/2, half-life in human plasma in vitro", "result": "> 320", "unit": "min"}, {"measurement": "effect on thrombin-induced FITC-dextran hyperpermeability", "setting": "[2]", "result": "completely abolished the FITC-dextran hyperpermeability; also recorded: effectively abolished FITC-dextran hyperpermeability"}, {"measurement": "LD50", "setting": "[3]", "result": "> 1000", "unit": "mg/kg"}, {"measurement": "lowest lethal dose, fold higher than with PIK2", "setting": "[4]; BALB/c mice, single intraperitoneal injection", "result": 47, "unit": "fold"}, {"measurement": "lowest dose of the active substance that caused animal death", "setting": "[4]; BALB/c mice, single intraperitoneal injection, followed 14 days", "result": 1274, "unit": "mg/kg"}, {"measurement": "signs after a toxic dose", "setting": "[4]; mice, single intraperitoneal injection of a toxic dose", "result": "movement retardation and death within the following 24 hrs"}, {"measurement": "LD50", "setting": "[5]", "result": "> 10", "unit": "mg/kg"}, {"measurement": "other standard hematological and biochemical parameters", "setting": "[6]", "result": "not altered"}, {"measurement": "overall health status and behavior", "setting": "[6]; 24-hrs testing period", "result": "no significant changes either in the overall health status or behavior"}, {"measurement": "triglyceride levels", "setting": "[6]; 24 hrs after administration, baseline 1.63 mmol/L", "result": 2.79, "unit": "mmol/L"}, {"measurement": "hematocrit", "setting": "[6]; 24 hrs after administration, baseline 38.81±1.49%", "result": "35.90±0.18", "unit": "%"}, {"measurement": "total plasma protein", "setting": "[6]; 24 hrs after administration, baseline 73.6±2.58 g/L", "result": "69.2 ± 0.47", "unit": "g/L"}, {"measurement": "hemoglobin level", "setting": "[6]; 24 hrs after administration, baseline 131±5 g/L", "result": "120 ± 7", "unit": "g/L"}, {"measurement": "survival", "setting": "[6]; group of 4", "result": "all animals survived"}]}
